These results are taken from US8796289B2 (AbbVie Inc., priority 2011, dated 2014).

By Ki is commonly meant the equilibrium dissociation constant of an inhibitor or competing ligand from its target.

Some results are limits rather than exact numbers.

GST-tagged-Wee1 kinase, sequence (P30291 whole entry): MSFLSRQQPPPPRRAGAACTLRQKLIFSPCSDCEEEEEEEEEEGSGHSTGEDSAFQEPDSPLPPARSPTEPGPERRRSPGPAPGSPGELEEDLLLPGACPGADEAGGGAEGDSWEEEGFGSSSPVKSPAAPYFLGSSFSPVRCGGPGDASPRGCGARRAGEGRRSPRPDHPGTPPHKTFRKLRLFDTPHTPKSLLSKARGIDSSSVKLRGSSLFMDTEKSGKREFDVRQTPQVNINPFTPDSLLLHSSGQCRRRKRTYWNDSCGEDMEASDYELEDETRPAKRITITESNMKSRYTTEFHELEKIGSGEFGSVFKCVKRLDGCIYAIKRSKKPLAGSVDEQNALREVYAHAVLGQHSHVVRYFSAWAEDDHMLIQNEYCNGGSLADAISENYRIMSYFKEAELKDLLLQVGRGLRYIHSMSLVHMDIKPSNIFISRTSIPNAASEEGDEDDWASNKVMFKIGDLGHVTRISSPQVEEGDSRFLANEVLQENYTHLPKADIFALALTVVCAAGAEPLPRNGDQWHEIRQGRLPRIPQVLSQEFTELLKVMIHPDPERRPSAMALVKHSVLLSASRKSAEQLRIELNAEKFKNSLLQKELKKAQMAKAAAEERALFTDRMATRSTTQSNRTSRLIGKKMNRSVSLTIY

One assay addresses GST-tagged-Wee1 kinase (Homo sapiens, UniProt P30291). As to the kind of experiment: Wee1 time-resolved fluorescence equilibrium binding assay (displacement of Oregon Green-labeled ATP-competitive kinase probe).
Settings: not given
The protocol: Wee1 kinase was assayed using a time-resolved fluorescence equilibrium binding assay monitoring displacement of a rapidly reversible Oregon Green-labeled ATP-competitive kinase probe (N-(2-(2-(2-(4-(4-(5-chloro-4-(2-(1-hydroxycyclobutyl)thiazol-5-yl)-1H-pyrrolo[2,3-b]pyridin-2-yl)phenyl)piperazin-1-yl)ethoxy)ethoxy)ethyl)-2′,7′-difluoro-3′,6′-dihydroxy-3-oxo-3H-spiro[isobenzofuran-1,9′-xanthene]-5-carboxamide) by competitive Wee1 inhibitors.
In turn, `Cc1nn(C)c(=O)c2cnc(Nc3ccc(N4CCN(C)CC4)cc3)nc12` [Example 1, 6,8-dimethyl-2-{[4-(4-methylpiperazin-1-yl)phenyl]amino}pyrimido[4,5-d]pyridazin-5(6H)-one] came in with a Ki of 1900 nM.
The compound `C=CCn1nc(C)c2nc(Nc3ccc(N4CCN(C)CC4)cc3)ncc2c1=O` [Example 2, 6-allyl-8-methyl-2-{[4-(4-methylpiperazin-1-yl)phenyl]amino}pyrimido[4,5-d]pyridazin-5(6H)-one] yielded a Ki of 140 nM.
Same read-out and setting: in the case of `CN1CCN(c2ccc(Nc3ncc4c(=O)n(C)nc(-c5ccccc5)c4n3)cc2)CC1` [Example 3, 6-methyl-2-{[4-(4-methylpiperazin-1-yl)phenyl]amino}-8-phenylpyrimido[4,5-d]pyridazin-5(6H)-one] it was 180 nM; in that of `CN1CCN(c2ccc(Nc3ncc4c(=O)[nH]nc(-c5ccccc5)c4n3)cc2)CC1` [Example 4, 2-{[4-(4-methylpiperazin-1-yl)phenyl]amino}-8-phenylpyrimido[4,5-d]pyridazin-5(6H)-one], 25 nM.
The compound `C=CCn1nc(-c2ccccc2)c2nc(Nc3ccc(N4CCN(C)CC4)cc3)ncc2c1=O` [Example 5, 6-allyl-2-{[4-(4-methylpiperazin-1-yl)phenyl]amino}-8-phenylpyrimido[4,5-d]pyridazin-5(6H)-one] returned a Ki of 6 nM.
The same measure, in the same setting: in the case of `CN1CCN(c2ccc(Nc3ncc4c(=O)n(C)nc(CCc5ccccc5)c4n3)cc2)CC1` [Example 6, 6-methyl-2-{[4-(4-methylpiperazin-1-yl)phenyl]amino}-8-(2-phenylethyl)pyrimido[4,5-d]pyridazin-5(6H)-one] it was 680 nM; in that of `C=CCn1nc(CCc2ccccc2)c2nc(Nc3ccc(N4CCN(C)CC4)cc3)ncc2c1=O` [Example 7, 6-allyl-2-{[4-(4-methylpiperazin-1-yl)phenyl]amino}-8-(2-phenylethyl)pyrimido[4,5-d]pyridazin-5(6H)-one], 250 nM.
Still for that read-out and setting: the same measure for `CN1CCN(c2ccc(Nc3ncc4c(=O)n(CCC#N)nc(CCc5ccccc5)c4n3)cc2)CC1` [Example 8, 3-[2-{[4-(4-methylpiperazin-1-yl)phenyl]amino}-5-oxo-8-(2-phenylethyl)pyrimido[4,5-d]pyridazin-6(5H)-yl]propanenitrile]: 370 nM; for `CN1CCN(c2ccc(Nc3ncc4c(=O)n(-c5ccccc5)nc(CCc5ccccc5)c4n3)cc2)CC1` [Example 9, 2-{[4-(4-methylpiperazin-1-yl)phenyl]amino}-6-phenyl-8-(2-phenylethyl)pyrimido[4,5-d]pyridazin-5(6H)-one]: 61 nM; for `CN1CCN(c2ccc(Nc3ncc4c(=O)n(CC(F)(F)F)nc(CCc5ccccc5)c4n3)cc2)CC1` [Example 10, 2-{[4-(4-methylpiperazin-1-yl)phenyl]amino}-8-(2-phenylethyl)-6-(2,2,2-trifluoroethyl)pyrimido[4,5-d]pyridazin-5(6H)-one]: above 3140 nM.
Same read-out and setting: the same measure for `CCCc1nn(C)c(=O)c2cnc(Nc3ccc(N4CCN(C)CC4)cc3)nc12` [Example 11, 6-methyl-2-{[4-(4-methylpiperazin-1-yl)phenyl]amino}-8-propylpyrimido[4,5-d]pyridazin-5(6H)-one]: 730 nM; for `Cc1ccccc1-n1nc(CCc2ccccc2)c2nc(Nc3ccc(N4CCN(C)CC4)cc3)ncc2c1=O` [Example 12, 6-(2-methylphenyl)-2-{[4-(4-methylpiperazin-1-yl)phenyl]amino}-8-(2-phenylethyl)pyrimido[4,5-d]pyridazin-5(6H)-one]: 6 nM.
Compound `CN1CCN(c2ccc(Nc3ncc4c(=O)n(C)nc(C5CCCC5)c4n3)cc2)CC1` [Example 13, 8-cyclopentyl-6-methyl-2-{[4-(4-methylpiperazin-1-yl)phenyl]amino}pyrimido[4,5-d]pyridazin-5(6H)-one] registered a Ki of 620 nM.
For `CN1CCN(c2ccc(Nc3ncc4c(=O)[nH]nc(C5CCCC5)c4n3)cc2)CC1` [Example 14, 8-cyclopentyl-2-{[4-(4-methylpiperazin-1-yl)phenyl]amino}pyrimido[4,5-d]pyridazin-5(6H)-one], the Ki is 1100 nM.
As to `C=CCn1nc(C2CCCC2)c2nc(Nc3ccc(N4CCN(C)CC4)cc3)ncc2c1=O` [Example 15, 6-allyl-8-cyclopentyl-2-{[4-(4-methylpiperazin-1-yl)phenyl]amino}pyrimido[4,5-d]pyridazin-5(6H)-one], the affinity, expressed as Ki, was 250 nM.
Take `C=CCn1nc(CCC)c2nc(Nc3ccc(N4CCN(C)CC4)cc3)ncc2c1=O` [Example 16, 6-allyl-2-{[4-(4-methylpiperazin-1-yl)phenyl]amino}-8-propylpyrimido[4,5-d]pyridazin-5(6H)-one]: the affinity, expressed as Ki, was 130 nM.
Compound `CCCc1nn(-c2ccccc2)c(=O)c2cnc(Nc3ccc(N4CCN(C)CC4)cc3)nc12` [Example 17, 2-{[4-(4-methylpiperazin-1-yl)phenyl]amino}-6-phenyl-8-propylpyrimido[4,5-d]pyridazin-5(6H)-one] showed a Ki of 36 nM.
Still for that read-out and setting: in the case of `CCCc1nn(-c2ccccc2C)c(=O)c2cnc(Nc3ccc(N4CCN(C)CC4)cc3)nc12` [Example 18, 6-(2-methylphenyl)-2-{[4-(4-methylpiperazin-1-yl)phenyl]amino}-8-propylpyrimido[4,5-d]pyridazin-5(6H)-one] it was 4 nM.
`CN1CCN(c2ccc(Nc3ncc4c(=O)n(-c5ccccc5)nc(Cc5ccccc5)c4n3)cc2)CC1` [Example 19, 8-benzyl-2-{[4-(4-methylpiperazin-1-yl)phenyl]amino}-6-phenylpyrimido[4,5-d]pyridazin-5(6H)-one]: the Ki was determined as 73 nM.
Consider `Cc1ccccc1-n1nc(Cc2ccccc2)c2nc(Nc3ccc(N4CCN(C)CC4)cc3)ncc2c1=O` [Example 20, 8-benzyl-6-(2-methylphenyl)-2-{[4-(4-methylpiperazin-1-yl)phenyl]amino}pyrimido[4,5-d]pyridazin-5(6H)-one], for which the Ki was found to be 19 nM.
Same read-out and setting: the same measure for `CCCc1nn(CCC#N)c(=O)c2cnc(Nc3ccc(N4CCN(C)CC4)cc3)nc12` [Example 21, 3-[2-{[4-(4-methylpiperazin-1-yl)phenyl]amino}-5-oxo-8-propylpyrimido[4,5-d]pyridazin-6(5H)-yl]propanenitrile]: 350 nM; for `C=CCn1nc(Cc2ccccc2)c2nc(Nc3ccc(N4CCN(C)CC4)cc3)ncc2c1=O` [Example 22]: 700 nM.
Compound `CCCc1nn(CC(F)(F)F)c(=O)c2cnc(Nc3ccc(N4CCN(C)CC4)cc3)nc12` [Example 23, 2-{[4-(4-methylpiperazin-1-yl)phenyl]amino}-8-propyl-6-(2,2,2-trifluoroethyl)pyrimido[4,5-d]pyridazin-5(6H)-one] returned a Ki of 370 nM.
On the same count and under the same terms, the same measure for `CN1CCN(c2ccc(Nc3ncc4c(=O)n(-c5ccccc5Cl)nc(CCc5ccccc5)c4n3)cc2)CC1` [Example 24, 6-(2-chlorophenyl)-2-{[4-(4-methylpiperazin-1-yl)phenyl]amino}-8-(2-phenylethyl)pyrimido[4,5-d]pyridazin-5(6H)-one]: 2 nM; for `CCCc1nn(-c2ccccc2Cl)c(=O)c2cnc(Nc3ccc(N4CCN(C)CC4)cc3)nc12` [Example 25, 6-(2-chlorophenyl)-2-{[4-(4-methylpiperazin-1-yl)phenyl]amino}-8-propylpyrimido[4,5-d]pyridazin-5(6H)-one]: 1 nM.
Still for that read-out and setting: the same measure for `CN1CCN(c2ccc(Nc3ncc4c(=O)n(-c5ccccc5Cl)nc(Cc5ccccc5)c4n3)cc2)CC1` [Example 26, 8-benzyl-6-(2-chlorophenyl)-2-{[4-(4-methylpiperazin-1-yl)phenyl]amino}pyrimido[4,5-d]pyridazin-5(6H)-one]: 12 nM; for `CN1CCN(c2ccc(Nc3ncc4c(=O)n(-c5ccccc5)nc(-c5ccccc5)c4n3)cc2)CC1` [Example 27, 2-{[4-(4-methylpiperazin-1-yl)phenyl]amino}-6,8-diphenylpyrimido[4,5-d]pyridazin-5(6H)-one]: 2 nM.

The same assay, now with this note: read-out: Wee-1 inhibition Ki.
For the compound “3-{[6-(2,6-dichlorophenyl)-8-methyl-5-oxo-5,6-dihydropyrimido[4,5-d]pyridazin-2-yl]amino}benzoic acid [Example 521]”, the Ki came to 97 nM.
Consider “6-(2,6-dichlorocyclohexa-1,5-dien-1-yl)-2-[(3-{[2-(dimethylamino)ethyl]amino}phenyl)amino]-8-methylpyrimido[4,5-d]pyridazin-5(6H)-one [Example 514]”, for which the Ki worked out at 0.41 nM.
On the same count and under the same terms, the same measure for “6-(2,6-dichlorophenyl)-8-(3-furyl)-2-{[4-(4-methylpiperazin-1-yl)phenyl]amino}pyrimido[4,5-d]pyridazin-5(6H)-one [Example 95]”: 0.1 nM.
Still for that read-out and setting: in the case of “6-(2-chlorophenyl)-2-{[4-(4-isopropylpiperazin-1-yl)-3-methylphenyl]amino}-8-(2-thienyl)pyrimido[4,5-d]pyridazin-5(6H)-one [Example 166]” it was 0.8 nM; in that of “6-(2-chlorophenyl)-2-{[4-(4-methylpiperazin-1-yl)phenyl]amino}-8-(1-methyl-1H-pyrazol-4-yl)pyrimido[4,5-d]pyridazin-5(6H)-one [Example 86]”, 1 nM; in that of “6-(2-chlorophenyl)-8-(2-furyl)-2-{[4-(4-methylpiperazin-1-yl)phenyl]amino}pyrimido[4,5-d]pyridazin-5(6H)-one [Example 33]”, 0.3 nM.
On the same count and under the same terms, the same measure for “6-(2-chlorophenyl)-8-(6-chloropyridin-2-yl)-2-{[4-(4-methylpiperazin-1-yl)phenyl]amino}pyrimido[4,5-d]pyridazin-5(6H)-one [Example 77]”: 0.7 nM; for “8-(6-chloropyridin-2-yl)-6-(2,6-dichlorophenyl)-2-{[4-(4-methylpiperazin-1-yl)phenyl]amino}pyrimido[4,5-d]pyridazin-5(6H)-one [Example 75]”: 0.08 nM.
